Results on four compounds are retold here after patent US12171884B2, “Mesoporous silica nanoparticles with lipid bilayer coating for cargo delivery” (priority 2016, dated 2024).

One data set has as its system PDAC. As to conditions: PDAC patients; cited from earlier work.
A short description of data set [1]: Maximum tolerated dose (NCI protocol). As to conditions: male, BALB/c, mouse, in vivo; Example 1; healthy mice, IV, validated in six mice over 15 days. On the procedure: . Two healthy male BALB/c mice were IV injected with a 50 mg/kg (C1 dose) equivalent of free or encapsulated irinotecan. This was followed by a dose escalation factor of 1.8 to obtain the Cn dose, which results in animal death within 24 h after the last administration. The second round of dose-seeking began with the Cn-1 dose and utilized a 1.15 escalation factor (n=2) to find the MTD, which is defined as the absence of mortality or morbidity. The MTD was validated by injecting six mice, which were followed for 15 days to determine the absence of morbidity, mortality, or >15% weight loss.
. Two healthy male BALB/c mice were IV injected with 50 mg/kg (C1 dose) free or encapsulated drug. We then used a dose escalation factor of 1.8 to determine the Cn dose where both animals (n=2) died within 24 hours. After treatment with free or encapsulated irinotecan. The second round of dose-seeking began with Cn-1 dose, and utilized a 1.15 escalation factor (n=2) to find the MTD, where there was no mortality or serious morbidity. The MTD was further validated by injecting […], and following them for 15 days to ascertain that there was no morbidity, mortality or […]. […].

Data set [2] deals with KPC-derived orthotopic tumors. The data set is described as follows: Efficacy assessment in KPC-derived orthotopic model. The conditions noted are these: 40 mg/kg IV every 4 days.
A further data set has as its system PANC-1 cells. The data set is described as follows: MTS cytotoxicity assay. It is filed as cell-based. The conditions noted are these: PANC-1, incremental irinotecan concentrations, 24-72 hours. For orientation: Tetrazolium assays rely on reduction of a dye to a coloured formazan, in cell work by metabolically active cells.
Data set [3] is described as follows: Acute histological analysis after single IV dose (Example 2). The conditions noted are these: 60 mg/kg single IV, 24 hours; for kidney histology: hydrochloride trihydrate.
Data set [4] in a line: Bone marrow toxicity and differential white cell count. The data set is classed as in vivo, mice. As to conditions: 40 mg/kg IV x3, 2 days apart; listed as free drug, hydrochloride trihydrate. On the procedure: Bone marrow toxicity was studied in a separate experiment, in which animals received three injections of a 40 mg/kg irinotecan dose equivalent, as described above. After sacrifice, sternal bone marrow was collected to evaluate myelotoxicity by H&E staining (FIG. 4D) (Iusuf et al. (2014) Mol. Cancer Ther. 13: 492-503).

The conditions of data set [5]: human, in vivo; cited from earlier work.
In a further data set the test system is BxPC-3 cells. The data set is described as follows: MTS cytotoxicity assay. It is filed as cell-based. As to conditions: BxPC3, incremental irinotecan concentrations, 24-72 hours.
Data set [6] is described as follows: Liver and intestinal toxicity (H&E, cleaved caspase-3 IHC). As to conditions: animals of efficacy study, 40 mg/kg every 4 days.
Data set [7] relates to KPC-derived orthotopic tumor. The conditions noted are these: mouse, in vivo. From the text: This stringent PDAC tumor model mimics human PDAC for oncogene expression, growth characteristics, metastasis, histological features and development of a dysplastic stroma. […] Imaging intensity was quantified by IVIS Lumina Living Image software.
In data set [8] the test system is patient-derived PDAC xenograft XWR #187. The conditions noted are these: mouse, in vivo, 50 mg/kg.

Entries after “also recorded” stand apart in the source; their conditions may differ. Structures can show the parent of a compound that is named as a salt.

`Nc1ccn([C@@H]2O[C@H](CO)[C@@H](O)C2(F)F)c(=O)n1` [GEM, gemcitabine]: in the data set on PDAC, the response rate is listed as 9.4% and the survival is 6.8 months.

As to `CCc1c2c(nc3ccc(OC(=O)N4CCC(N5CCCCC5)CC4)cc13)-c1cc3c(c(=O)n1C2)COC(=O)[C@]3(O)CC` [free irinotecan, Irinotecan hydrochloride trihydrate], the MTD (in general, the largest dose that counted as tolerated) at 15 days in [1] is 60 mg/kg. For the same compound, in data set [2], the “effect on metastasis (ex vivo bioluminescence)” value is “failed to affect metastasis”. Also, the “cell killing (MTS)” value in the data set with PANC-1 cells and in the data set with BxPC-3 cells was “more effective in killing over 24 hours” each time. In data set [3], the “bone marrow toxicity (H&E histology)” value was “Severe bone marrow damage and apoptosis”. For the same compound, the kidney histology entry in [3] (listed as Free irinotecan) is “nephrotoxicity”; in [3] (listed as free IRIN) it was “swelling and edema of Bowman's space”. Moreover, the “peripheral blood neutrophil count” value in data set [4] is given as “significant decrease of the absolute neutrophil count; also recorded: peripheral blood neutropenia”. In data set [5], the “G.I.T. adverse effects (vomiting, diarrhea, nausea, anorexia)” value is on record as ~50 % of patients. In addition, the incidence of neutropenia in data set [5] is approximately 60%. Further, the “liver histology (H&E)” value in data set [6] was “severe and extensive hepatocyte necrosis”.

`N=C(N)NCCC[C@@H]1NC(=O)[C@@H](N)CSSC[C@@H](C(=O)O)NC(=O)[C@H](CC(=O)O)NC(=O)[C@@H]2CCCN2C(=O)CNC(=O)[C@H](CCCCN)NC(=O)[C@H](CC(=O)O)NC(=O)CNC1=O` [iRGD]: in data set [7], the “enhancement of silicasome uptake at orthotopic tumor site by co-administration” value is listed as 3-4 fold; the “intratumoral particle abundance and traveling distance from blood vessels” value was “most effective strategy to enhance silicasome uptake”. The “increase of NIR intensity at the tumor site” value in data set [8] is recorded as 50%.

Consider FOLFIRINOX, for which, in the data set on PDAC, the response rate is recorded as 31.6% and the survival is recorded as approximately 11 months.
